US20240391965A1, “STAPLED ANTIMICROBIAL PEPTIDES (STAMPS) AND USES THEREOF” (Lytica Therapeutics, Inc., priority 2021, published 2024)
Starred links: 1 amine or outer side, 2 acyl side, 3 side chain; linkers in the order of their positions; H or OH if unused. Positions of bridges follow the written chain, without caps; N, C: chain ends. Residues, ends and D or L forms follow the SMILES beside them. mXylylene = c1cc(C[*:1])cc(C[*:2])c1; pXylylene = c1cc(C[*:2])ccc1C[*:1]; X1 = C(=CC[*:2])C[*:1]

How the values were obtained:
[1] = 90 minute cytotoxicity assay (LDH release), renal toxicity; type: cell-based; settings: 90 minutes of incubation, LDH release; read-out: Inhibitory Concentration at 50% Cytotoxicity (IC50) Human Renal Proximal Tubule Epithelial Cells (RPTEC)
Method in brief: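 Released lactate dehydrogenase, read as absorbance at 490 nm after 10 min with assay reagent, serves as read-out. Renal proximal tubule epithelial cells received peptide serial dilutions or vehicle for 90 min at 37° C after overnight plating.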

[2] = system: Acinetobacter baumannii (A. baumannii); type: cell-based; settings: microbroth dilution, 20-24 hours at 37° C.
Method in brief: (§1)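 MIC = lowest peptide concentration without visible bacterial growth. CLSI-based microbroth dilution, MHB or MHB II, inoculum 5×10^5 CFU/ml, 20-24 h, 37 °C.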

[3] = system: Staphylococcus aureus (S. aureus); type: cell-based; settings: microbroth dilution, 20-24 hours at 37° C.
Method in brief: as §1

[4] = system: Pseudomonas aeruginosa (P. aeruginosa); type: cell-based; settings: microbroth dilution, 20-24 hours at 37° C.
Method in brief: as §1

[5] = system: Escherichia coli (E. coli); type: cell-based; settings: microbroth dilution, 20-24 hours at 37° C.
Method in brief: as §1

[6] = system: Klebsiella pneumoniae (K. pneumoniae); type: cell-based; settings: microbroth dilution, 20-24 hours at 37° C.
Method in brief: as §1

[7] = 48 hours cytotoxicity assay (CellTiter-Glo), liver toxicity; type: cell-based, human; settings: 48 hours of incubation, CellTiter-Glo; read-out: Inhibitory Concentration at 50% Cytotoxicity (IC50) Human Liver Cells (HepG2)
Method in brief: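 Viability from CellTiter-Glo luminescence after StAMP dilution series or vehicle acted on HepG2 cells for 48 h at 37 °C. Cells were grown in EMEM plus 10% FBS and given 4 h to attach before dosing.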

Row | SMILES | IC50 [1] [µg/mL] | Minimum Inhibitory Concentration (MIC) A. baumannii [2] [µg/mL] | Minimum Inhibitory Concentration (MIC) S. aureus [3] [µg/mL] | Minimum Inhibitory Concentration (MIC) P. aeruginosa [4] [µg/mL] | Minimum Inhibitory Concentration (MIC) E. coli [5] [µg/mL] | Minimum Inhibitory Concentration (MIC) K. pneumoniae [6] [µg/mL] | IC50 [7] [µg/mL]
1 | CC[C@H](C)[C@H](NC(=O)CN)C(=O)N[C@@H](Cc1ccccc1)C(=O)N[C@@H](CO)C(=O)N[C@@H](CCCCN)C(=O)N[C@@H](CC(C)C)C(=O)N[C@@H](C)C(=O)NCC(=O)N[C@@H](CCCCN)C(=O)N[C@H]1CSCC=CCSC[C@@H](C(=O)N[C@@H](CC(C)C)C(=O)N[C@H](C(=O)N[C@@H](CO)C(=O)NCC(=O)N[C@@H](CC(C)C)C(=O)N[C@@H](CCCCN)C(=O)NCC(N)=O)[C@@H](C)CC)NC(=O)[C@H](CC(N)=O)NC(=O)[C@H](CCCCN)NC(=O)[C@H]([C@@H](C)CC)NC1=O [compound 16] (H-GIFSKLAGKCIKNCLISGLKG-NH2; linker 10-14 via X1) | > 200 | 64 | >64 | >64 | 32 | >64 | > 200
2 | CC[C@H](C)[C@H](NC(=O)CN)C(=O)N[C@@H](Cc1ccccc1)C(=O)N[C@@H](CO)C(=O)N[C@@H](CCCCN)C(=O)N[C@@H](CC(C)C)C(=O)N[C@@H](C)C(=O)NCC(=O)N[C@@H](CCCCN)C(=O)N[C@@H](CCCCN)C(=O)N[C@H]1CSCc2cccc(c2)CSC[C@@H](C(=O)N[C@H](C(=O)N[C@@H](CO)C(=O)NCC(=O)N[C@@H](CC(C)C)C(=O)N[C@@H](CCCCN)C(=O)NCC(N)=O)[C@@H](C)CC)NC(=O)[C@H](CC(C)C)NC(=O)[C@H](CC(N)=O)NC(=O)[C@H](CCCCN)NC1=O [compound 17] (H-GIFSKLAGKKCKNLCISGLKG-NH2; linker 11-15 via mXylylene) | > 200 | >64 | >64 | >64 | 64 | >64 | > 200
3 | CC[C@H](C)[C@H](NC(=O)CN)C(=O)N[C@@H](Cc1ccccc1)C(=O)N[C@@H](CO)C(=O)N[C@@H](CCCCN)C(=O)N[C@@H](CC(C)C)C(=O)N[C@@H](C)C(=O)NCC(=O)N[C@@H](CCCCN)C(=O)N[C@@H](CCCCN)C(=O)N[C@H]1CSCc2ccc(cc2)CSC[C@@H](C(=O)N[C@H](C(=O)N[C@@H](CO)C(=O)NCC(=O)N[C@@H](CC(C)C)C(=O)N[C@@H](CCCCN)C(=O)NCC(N)=O)[C@@H](C)CC)NC(=O)[C@H](CC(C)C)NC(=O)[C@H](CC(N)=O)NC(=O)[C@H](CCCCN)NC1=O [compound 18] (H-GIFSKLAGKKCKNLCISGLKG-NH2; linker 11-15 via pXylylene) | > 200 | >64 | >64 | >64 | >64 | >64 | > 200
4 | CC[C@H](C)[C@H](NC(=O)CN)C(=O)N[C@@H](Cc1ccccc1)C(=O)N[C@@H](CO)C(=O)N[C@@H](CCCCN)C(=O)N[C@@H](CC(C)C)C(=O)N[C@@H](C)C(=O)NCC(=O)N[C@@H](CCCCN)C(=O)N[C@@H](CCCCN)C(=O)N[C@H]1CSCC=CCSC[C@@H](C(=O)N[C@H](C(=O)N[C@@H](CO)C(=O)NCC(=O)N[C@@H](CC(C)C)C(=O)N[C@@H](CCCCN)C(=O)NCC(N)=O)[C@@H](C)CC)NC(=O)[C@H](CC(C)C)NC(=O)[C@H](CC(N)=O)NC(=O)[C@H](CCCCN)NC1=O [compound 19] (H-GIFSKLAGKKCKNLCISGLKG-NH2; linker 11-15 via X1) | > 200 | >64 | >64 | >64 | >64 | >64 | > 200
